± gives the standard deviation of the averaged measurements.
How the values were obtained:
[1] = compound: Oc1ccc(/C=C/c2cc(O)cc(O)c2)cc1 [RESVERATROL]; assay: surviving fraction relative to DMSO-only wells; higher = less growth inhibition; details: exposure time: 5 days
Procedure, shortened: (§1)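 Continuous five-day exposure to inhibitors at 0.5, 1, 5, 10, 50, 100, 500 and 1000 nM started 24 hours after log-phase tumour cell lines were seeded at 250–500 cells per well in 384-well plates. Luminescence was read after 10 minutes at room temperature. Viability is given as surviving fraction, meaning CellTiter-Glo luminescence normalised to the median of DMSO-only wells.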

[2] = compound: C=CCNC1=C2C[C@@H](C)C[C@H](OC)[C@H](O)[C@@H](C)/C=C(\C)[C@H](OC(N)=O)[C@@H](OC)/C=C\C=C(/C)C(=O)NC(=CC1=O)C2=O [17-AAG]; assay: as above; details: exposure time: 5 days
Procedure, shortened: as §1

Work on HCC1395 BREAST yielded a surviving fraction ([1]; 0.5 nM) of 0.968 ± 0.099, a surviving fraction ([1]; 1 nM) of 1.07 ± 0.075 and a surviving fraction ([1]; 5 nM) of 1.1 ± 0.069. For the same test system, the surviving fraction ([1]; 10 nM) was 1.28 ± 0.16, the surviving fraction ([1]; 50 nM) was 1.02 ± 0.094 and the surviving fraction ([1]; 100 nM) was 1.21 ± 0.1. The surviving fraction ([1]; 500 nM) was 1.05 ± 0.09, the surviving fraction ([1]; 1000 nM) was 0.985 ± 0.15 and the surviving fraction ([2]; 0.5 nM) was 0.823 ± 0.02. It also gave a surviving fraction ([2]; 1 nM) of 0.862 ± 0.035, a surviving fraction ([2]; 5 nM) of 0.957 ± 0.12 and a surviving fraction ([2]; 10 nM) of 0.93 ± 0.067. The surviving fraction ([2]; 50 nM) was 1.21 ± 0.12, the surviving fraction ([2]; 100 nM) was 1.13 ± 0.18 and the surviving fraction ([2]; 500 nM) was 0.899 ± 0.15. The surviving fraction ([2]; 1000 nM) was 0.803 ± 0.1.
Work on HCC1806 BREAST yielded a surviving fraction ([1]; 0.5 nM) of 1.04 ± 0.073, a surviving fraction ([1]; 1 nM) of 1.04 ± 0.072 and a surviving fraction ([1]; 5 nM) of 1.18 ± 0.14. The surviving fraction ([1]; 10 nM) was 1.18 ± 0.051, the surviving fraction ([1]; 50 nM) was 1.24 ± 0.049 and the surviving fraction ([1]; 100 nM) was 1.23 ± 0.044. The surviving fraction ([1]; 500 nM) was 0.963 ± 0.029, the surviving fraction ([1]; 1000 nM) was 0.963 ± 0.19 and the surviving fraction ([2]; 0.5 nM) was 0.78 ± 0.076. For the same test system, the surviving fraction ([2]; 1 nM) was 0.783 ± 0.065, the surviving fraction ([2]; 5 nM) was 0.571 ± 0.12 and the surviving fraction ([2]; 10 nM) was 0.123 ± 0.056. For the same test system, the surviving fraction ([2]; 50 nM) was 0.0273 ± 0.0015, the surviving fraction ([2]; 100 nM) was 0.0247 ± 0.0015 and the surviving fraction ([2]; 500 nM) was 0.023 ± 0.001. It also gave a surviving fraction ([2]; 1000 nM) of 0.0243 ± 0.0015.
In the case of HCC1954 BREAST, the surviving fraction ([1]; 0.5 nM) is reported as 1.06 ± 0.055, the surviving fraction ([1]; 1 nM) is reported as 1.12 ± 0.012 and the surviving fraction ([1]; 5 nM) is reported as 1.21 ± 0.065. It also gave a surviving fraction ([1]; 10 nM) of 1.39 ± 0.098, a surviving fraction ([1]; 50 nM) of 1.03 ± 0.025 and a surviving fraction ([1]; 100 nM) of 1.25 ± 0.19. For the same test system, the surviving fraction ([1]; 500 nM) was 0.997 ± 0.065, the surviving fraction ([1]; 1000 nM) was 0.934 ± 0.064 and the surviving fraction ([2]; 0.5 nM) was 0.387 ± 0.00071. For the same test system, the surviving fraction ([2]; 1 nM) was 0.292 ± 0.071, the surviving fraction ([2]; 5 nM) was 0.195 ± 0.011 and the surviving fraction ([2]; 10 nM) was 0.131 ± 0.03. The surviving fraction ([2]; 50 nM) was 0.0668 ± 0.012, the surviving fraction ([2]; 100 nM) was 0.0498 ± 0.0053 and the surviving fraction ([2]; 500 nM) was 0.0425 ± 0.0042. It also gave a surviving fraction ([2]; 1000 nM) of 0.045 ± 0.0064.
HCT15 LARGE INTESTINE gave a surviving fraction ([1]; 0.5 nM) of 0.982 ± 0.12, a surviving fraction ([1]; 1 nM) of 1.03 ± 0.12 and a surviving fraction ([1]; 5 nM) of 1.02 ± 0.1. For the same test system, the surviving fraction ([1]; 10 nM) was 1.02 ± 0.093, the surviving fraction ([1]; 50 nM) was 1.05 ± 0.08 and the surviving fraction ([1]; 100 nM) was 1.06 ± 0.095. It also gave a surviving fraction ([1]; 500 nM) of 0.968 ± 0.15, a surviving fraction ([1]; 1000 nM) of 1.08 ± 0.11 and a surviving fraction ([2]; 0.5 nM) of 0.858 ± 0.04. The surviving fraction ([2]; 1 nM) was 0.852 ± 0.011, the surviving fraction ([2]; 5 nM) was 0.864 ± 0.029 and the surviving fraction ([2]; 10 nM) was 0.792 ± 0.078. The surviving fraction ([2]; 50 nM) was 0.479 ± 0.0076, the surviving fraction ([2]; 100 nM) was 0.264 ± 0.0079 and the surviving fraction ([2]; 500 nM) was 0.072 ± 0.0027. The surviving fraction ([2]; 1000 nM) was 0.0573 ± 0.0025.
Work on HELA CERVIX yielded a surviving fraction ([1]; 0.5 nM) of 1.04 ± 0.034, a surviving fraction ([1]; 1 nM) of 1.12 ± 0.036 and a surviving fraction ([1]; 5 nM) of 1.06 ± 0.096. It also gave a surviving fraction ([1]; 10 nM) of 1.08 ± 0.023, a surviving fraction ([1]; 50 nM) of 1.09 ± 0.066 and a surviving fraction ([1]; 100 nM) of 1.12 ± 0.037. It also gave a surviving fraction ([1]; 500 nM) of 1.12 ± 0.092, a surviving fraction ([1]; 1000 nM) of 1.21 ± 0.066 and a surviving fraction ([2]; 0.5 nM) of 0.944 ± 0.039. It also gave a surviving fraction ([2]; 1 nM) of 0.921 ± 0.037, a surviving fraction ([2]; 5 nM) of 0.924 ± 0.045 and a surviving fraction ([2]; 10 nM) of 0.906 ± 0.043. It also gave a surviving fraction ([2]; 50 nM) of 0.68 ± 0.092, a surviving fraction ([2]; 100 nM) of 0.482 ± 0.038 and a surviving fraction ([2]; 500 nM) of 0.219 ± 0.015. For the same test system, the surviving fraction ([2]; 1000 nM) was 0.0948 ± 0.0088.
For HOS BONE, the surviving fraction ([1]; 0.5 nM) was 1.016 ± 0.0053, the surviving fraction ([1]; 1 nM) was 1.05 ± 0.03 and the surviving fraction ([1]; 5 nM) was 1.018 ± 0.009. For the same test system, the surviving fraction ([1]; 10 nM) was 1.02 ± 0.021, the surviving fraction ([1]; 50 nM) was 1.03 ± 0.012 and the surviving fraction ([1]; 100 nM) was 1.06 ± 0.036. The surviving fraction ([1]; 500 nM) was 1.05 ± 0.024, the surviving fraction ([1]; 1000 nM) was 1.07 ± 0.025 and the surviving fraction ([2]; 0.5 nM) was 0.924 ± 0.029. It also gave a surviving fraction ([2]; 1 nM) of 0.932 ± 0.037, a surviving fraction ([2]; 5 nM) of 0.934 ± 0.027 and a surviving fraction ([2]; 10 nM) of 0.93 ± 0.017. It also gave a surviving fraction ([2]; 50 nM) of 0.914 ± 0.024, a surviving fraction ([2]; 100 nM) of 0.442 ± 0.11 and a surviving fraction ([2]; 500 nM) of 0.0503 ± 0.0011. It also gave a surviving fraction ([2]; 1000 nM) of 0.0427 ± 0.0032.
HOSMNG BONE showed a surviving fraction ([1]; 0.5 nM) of 0.83 ± 0.15, a surviving fraction ([1]; 1 nM) of 0.872 ± 0.023 and a surviving fraction ([1]; 5 nM) of 0.832 ± 0.1. For the same test system, the surviving fraction ([1]; 10 nM) was 0.722 ± 0.061, the surviving fraction ([1]; 50 nM) was 0.827 ± 0.11 and the surviving fraction ([1]; 100 nM) was 0.877 ± 0.11. It also gave a surviving fraction ([1]; 500 nM) of 0.878 ± 0.072, a surviving fraction ([1]; 1000 nM) of 0.924 ± 0.1 and a surviving fraction ([2]; 0.5 nM) of 0.981 ± 0.039. It also gave a surviving fraction ([2]; 1 nM) of 0.977 ± 0.072, a surviving fraction ([2]; 5 nM) of 0.972 ± 0.051 and a surviving fraction ([2]; 10 nM) of 0.978 ± 0.068. It also gave a surviving fraction ([2]; 50 nM) of 1.08 ± 0.028, a surviving fraction ([2]; 100 nM) of 0.506 ± 0.014 and a surviving fraction ([2]; 500 nM) of 0.14 ± 0.014. It also gave a surviving fraction ([2]; 1000 nM) of 0.11 ± 0.0031.
With HSSYII SYNOVIAL the surviving fraction ([1]; 0.5 nM) was 0.951 ± 0.067, the surviving fraction ([1]; 1 nM) was 1.01 ± 0.029 and the surviving fraction ([1]; 5 nM) was 1.01 ± 0.015. It also gave a surviving fraction ([1]; 10 nM) of 0.995 ± 0.016, a surviving fraction ([1]; 50 nM) of 0.967 ± 0.04 and a surviving fraction ([1]; 100 nM) of 0.971 ± 0.079. It also gave a surviving fraction ([1]; 500 nM) of 0.9 ± 0.03, a surviving fraction ([1]; 1000 nM) of 0.917 ± 0.043 and a surviving fraction ([2]; 0.5 nM) of 0.869 ± 0.049. It also gave a surviving fraction ([2]; 1 nM) of 0.812 ± 0.035, a surviving fraction ([2]; 5 nM) of 0.888 ± 0.045 and a surviving fraction ([2]; 10 nM) of 0.868 ± 0.022. The surviving fraction ([2]; 50 nM) was 0.764 ± 0.039, the surviving fraction ([2]; 100 nM) was 0.519 ± 0.017 and the surviving fraction ([2]; 500 nM) was 0.122 ± 0.0035. The surviving fraction ([2]; 1000 nM) was 0.114 ± 0.0093.
In the case of HT1080 SOFT TISSUE, the surviving fraction ([1]; 0.5 nM) is reported as 1.03 ± 0.031, the surviving fraction ([1]; 1 nM) is reported as 1.03 ± 0.019 and the surviving fraction ([1]; 5 nM) is reported as 0.995 ± 0.024. For the same test system, the surviving fraction ([1]; 10 nM) was 1.04 ± 0.033, the surviving fraction ([1]; 50 nM) was 0.984 ± 0.017 and the surviving fraction ([1]; 100 nM) was 1.03 ± 0.03. It also gave a surviving fraction ([1]; 500 nM) of 1.05 ± 0.013, a surviving fraction ([1]; 1000 nM) of 1.1 ± 0.015 and a surviving fraction ([2]; 0.5 nM) of 0.969 ± 0.031. It also gave a surviving fraction ([2]; 1 nM) of 1 ± 0.061, a surviving fraction ([2]; 5 nM) of 1.08 ± 0.015 and a surviving fraction ([2]; 10 nM) of 1.048 ± 0.01. For the same test system, the surviving fraction ([2]; 50 nM) was 0.389 ± 0.017, the surviving fraction ([2]; 100 nM) was 0.204 ± 0.028 and the surviving fraction ([2]; 500 nM) was 0.148 ± 0.0085. The surviving fraction ([2]; 1000 nM) was 0.146 ± 0.0015.
In the case of HU09 BONE, the surviving fraction ([1]; 0.5 nM) is reported as 0.972 ± 0.079, the surviving fraction ([1]; 1 nM) is reported as 1.08 ± 0.1 and the surviving fraction ([1]; 5 nM) is reported as 1.13 ± 0.1. For the same test system, the surviving fraction ([1]; 10 nM) was 1.07 ± 0.077, the surviving fraction ([1]; 50 nM) was 1.11 ± 0.15 and the surviving fraction ([1]; 100 nM) was 1.1 ± 0.079. The surviving fraction ([1]; 500 nM) was 1.05 ± 0.12, the surviving fraction ([1]; 1000 nM) was 1.06 ± 0.038 and the surviving fraction ([2]; 0.5 nM) was 0.918 ± 0.045. For the same test system, the surviving fraction ([2]; 1 nM) was 0.935 ± 0.14, the surviving fraction ([2]; 5 nM) was 0.542 ± 0.025 and the surviving fraction ([2]; 10 nM) was 0.131 ± 0.038. For the same test system, the surviving fraction ([2]; 50 nM) was 0.0283 ± 0.00058, the surviving fraction ([2]; 100 nM) was 0.0237 ± 0.0031 and the surviving fraction ([2]; 500 nM) was 0.0233 ± 0.0029. The surviving fraction ([2]; 1000 nM) was 0.0233 ± 0.0038.

— the supplement of paper PMC6045584
